Columns and labels:
Format in all cases: cell-based
Rhizoctonia solani = assay: In vitro antimicrobial activity, mycelial growth on potato dextrose agar medium; conditions: Concentration 10 ppm
Pyricularia oryzae = conditions: Concentration 10 ppm; colony diameter vs control, 25° C., second day to seventh day
Botrytis cinerea = assay: In vitro antimicrobial activity, mycelial growth on potato dextrose agar medium; conditions: Concentration 10 ppm

Substance: iso-C16 bacillomycin D [Comparative compound]
- Growth inhibition ratio (%) Rhizoctonia solani (Rhizoctonia solani): 9%
- Growth inhibition ratio (%) Pyricularia oryzae (Pyricularia oryzae): 35%
- Growth inhibition ratio (%) Botrytis cinerea (Botrytis cinerea): 39%

From US10660335B2, “Plant disease control agent” (SDS BIOTECH K.K., priority 2011, dated 2020)
